Experiment [1] concerns HCT-116 cells. Kind of experiment: MTT cytotoxicity assay, HCT-116. The class given is cell-based, human. The note with it: for IC50: Homo sapiens, MTT. Here is the method:
(§1) Cytotoxicity property of Dis against HCT-116 and CCD-841 cells were measured by MTT assay as described by Mossman[77]. Briefly, cells were treated with different concentration of Dis and 5-Fu (positive control) with serial dilution factor of 2 for 8 concentrations in 96 well-plate for different time points (24 h, 48 h and 72 h). Subsequently at the end of each time point 20 µl of MTT (5 mg/ml, Affymetrix,Cleveland, OH, USA) were added to each well followed by 4 h incubation. The solutions were aspirated after 4 h and 100 µl of DMSO were added to each well. Absorbance for each well was read at 570 nm as measured by using microplate reader (Tecan Infinite multimode, Männedorf, Switzerland). Cytotoxicity (cell death) was measured by using the following formula: Celldeath(%)=sampleOD−controlOD/controlOD100
(§2) This assay was performed in triplicates in three independent experiments. The cytotoxicity property of Dis was presented as IC50 value.
A general note: Formazan colour is commonly taken as a measure of viable cells.

The subject of experiment [2] is HT-29 cells. As to the kind of experiment: MTT cytotoxicity assay, HT-29. The note with it: for IC50: Homo sapiens, MTT. Type of experiment: cell-based, human. Here is the method: [Worded in the source for another cell line; this cell line is reported under the same test.] as §1, §2
The test system of experiment [3] is CCD-841 cells. As to the kind of experiment: MTT cytotoxicity assay, CCD-841 normal colon cells. Type of experiment: cell-based. Particulars: Homo sapiens, CCD-841 non cancerous cells. The procedure:
as §1, §2

Values after ≈ are worked out from the molar mass of the structure shown.

Experimental findings from article PMC6435658, “Investigation into the Molecular Mechanisms underlying the Anti-proliferative and Anti-tumorigenesis activities of Diosmetin against HCT-116 Human Colorectal Cancer” (Scientific Reports, 2019) are described below.

The IC50 is the concentration that inhibits the measured activity by half. A lower IC50 goes with inhibition by little substance. With `O=c1[nH]cc(F)c(=O)[nH]1` [5-FU, 5-Fluorouracil, reference compound], the IC50 in experiment [1] (HCT-116, 24 h) worked out at 5.43 ± 0.48 mg/L (≈ 41.7 µM); in experiment [1] (HCT-116, 48 h), 3.07 ± 0.34 mg/L (≈ 23.6 µM); in experiment [1] (HCT-116, 72 h) it was 1.47 ± 0.4 mg/L (≈ 11.3 µM); in experiment [2] (HT-29, 24 h), 10.3 ± 2.7 mg/L (≈ 79 µM); in experiment [2] (HT-29, 48 h), 10.5 ± 1.3 mg/L (≈ 80.6 µM); in experiment [2] (HT-29, 72 h), 2.24 ± 0.53 mg/L (≈ 17.2 µM). For the same compound, the IC50 in experiment [3] (24 h) was 197 ± 14.7 mg/L (≈ 1510 µM); in experiment [3] (48 h), 28.3 ± 0.67 mg/L (≈ 218 µM); in experiment [3] (72 h), 14.5 ± 0.68 mg/L (≈ 111 µM). The “Selectivity Index (SI)” value is recorded as 36.27 in experiment [1] (IC50 CCD-841 / IC50 HCT-116, 24 h); 9.23 in experiment [1] (IC50 CCD-841 / IC50 HCT-116, 48 h); 9.85 in experiment [1] (IC50 CCD-841 / IC50 HCT-116, 72 h); 19.15 in experiment [2] (IC50 CCD-841 / IC50 HT-29, 24 h); 2.7 in experiment [2] (IC50 CCD-841 / IC50 HT-29, 48 h); 6.46 in experiment [2] (IC50 CCD-841 / IC50 HT-29, 72 h).
